# Experimental data from patent US9557338B2 (SIGNAL PHARMACEUTICALS, LLC, priority 2012, dated 2017).
# Where two headings read alike, the source gives them in different places.
# Legend:
# Assay type in all cases: cell-based
# Phospho-p70S6K (T389) = assay: MSD assay, phospho-p70S6K (T389) in cell lysates; conditions: PC3 cell line; read-out: MSD p70S6K
# Procedure: Determination of Phospho-p70S6K (T389) in Cell Lysates.
# MSD® biomarker detection assays provide a rapid and convenient method for measuring the total and phosphorylated levels of protein targets within a single small-volume sample. In the assay, an antibody for a specific protein target is coated on one electrode (or spot) per well. The samples (cell lysates) are added to the well with a solution containing the detection antibody labeled with an electrochemiluminescent (ECL) compound, MSD SULFOTAG™ label, over the course of one or more incubation periods. The total protein present in the sample binds to the capture antibodies immobilized on the working electrode surface; recruitment of the labeled detection antibody by bound phospho-p70S6K completes the sandwich. MSD Read Buffer that provides the appropriate chemical environment for ECL is added and the plate is read using an MSD SECTOR™ Imager. Inside the SECTOR Imager, a voltage is applied to the plate electrodes which cause the labels bound to the electrode surface to emit light. The instrument measures intensity of the emitted light to afford a quantitative measure of the amount of phosphorylated protein present in the sample.
# Cells were plated in 96-well flat bottom plates at the required density determined for each cell line and the cells were allowed to equilibrate at 37° C., 5% CO2 overnight. The following day, the cells were treated with Compound 1 over a range of concentrations for one hour in 5% CO2 at 37° C. After the incubation period, the culture medium was removed carefully with an aspirator. The plate was placed on ice and 50 μL of 1× Tris Lysis Buffer were added to each well. The plate was placed on a shaker at 4° C. for one hour to lyse the cells. At that point, the plate was either frozen at −80° C. for later analysis or immediately assayed for phosphoproteins as described below. To monitor interassay variability, Compound 1 was compared among all plates as a reference standard.
# The assay plate was incubated with 150 μL of MSD Blocking Buffer for one hour with shaking at room temperature. The plates were washed 3 times with Tris Wash Buffer. Then 35 μL of cell lysate was added to the wells and incubated for one hour with shaking at room temperature. The solution was removed from the wells and the plate was washed 3 times with wash buffer. Twenty-five microliters of the appropriate antibody solution was then incubated for one hour with shaking at room temperature. The solution was removed from the wells and the plate was washed 3 times with wash buffer. Then 150 μL of 1×MSD Read Buffer T was added to each well. The plate was read on the SECTOR Imager plate reader.
# GSK-3β = assay: MSD assay, GSK-3β phosphorylation in cell lysates; conditions: PC3 cell line; read-out: MSD GSK-3β
# p70S6K = assay: Luminex multiplex assay, p70S6K phosphorylation in cell lysates
# From the text: (§1) The multiplex Luminex assay format differs from conventional enzyme-linked immunosorbent assay (ELISA) in that the multiplex capture antibody is attached to a polystyrene bead whereas the ELISA capture antibody is attached to the microplate well. The use of the suspension bead-based technology enables the multiplexing capabilities of the Luminex assays. The xMAP® technology uses 5.6 micron polystyrene microspheres, which are internally dyed with red and infrared fluorophores of differing intensities. Each bead is given a unique number, or bead region, allowing differentiation of one bead from another. Beads covalently bound to different specific antibodies can be mixed in the same assay, utilizing a 96-well microplate format. At the completion of the sandwich immunoassay, beads can be read, using the Luminex 100™ or Luminex 200 detection system, in single-file by dual lasers for classification and quantification of each analyte. The Akt-Pathway Phospho 5-plex kit used was custom made and includes the ability to simultaneously measure p-GSK3β (S9), p-PRAS40(T246), and p-4E-BP1(T46).
# (§2) Cells were plated at the required density. The cells were treated with either Compound 1 or rapamycin over a range of concentrations for 1 hour in 5% CO2 at 37° C. Compound 1 and rapamycin were used at the same concentrations as for the proliferation assay. As for the cell proliferation assay, a reference standard was included in the assay for PC3 cells and the coefficient of variation for assay of p-GSK3β(S9) was 37.8% (n=30), p-PRAS40(T246) was 27.8% (n=30) and for p4E-BP1(T46) was 13.5% (n=4). For three cell lines (HCT-116, MDA-MB-231 and HT29) in the assay for phosphorylation of GSK3β, PRAS40 and 4E-BP1, IGF-I stimulation (500 ng/mL, recombinant human IGF-I) for the last 10 min of incubation was used. The media was aspirated from the wells and the plate was placed on ice. Then 35 μL of Lysis Buffer was added to each well and incubated on ice for at least 30 minutes. During the incubation, the standard curve for each phosphoprotein was prepared. The standards provided were reconstituted and serial dilutions were prepared according to the manufacturer's instructions. At the end of the cell lysis step, […] of the lysate was transferred to a V-bottom plate and spun at 4° C. at 2000 rpm for 5 minutes. Both the 1× Luminex bead and 1× detector antibody solutions were prepared during this time. The 1× bead solution was vortexed and 25 μL was added into each well of a black round bottom plate. Then 50 μL of the 1× detector antibody was added to each well. Fifty microliters (50 μL) of the prepared standards were added to the designated wells. Then 25 μL of the assay diluent was added to each well designated for the compound-treated cell lysates. At the end of the spin, 25 μL of cell lysate was added to the corresponding wells of the black assay plate. The assay plate was covered with the white plate lid and incubated for 3 hours at room temperature on an orbital shaker.
# (§3) Approximately 10-15 minutes prior to the end of the first incubation, the secondary antibody solution was prepared according to the vendor's protocol. Goat anti-rabbit R-phycoerythrin red fluorescent protein (RPE) supplied as a 10× concentrate was diluted to generate a 1× goat anti-rabbit RPE stock. The 96-well filter plate was pre-wet with 200 μL of 1× Working wash solution. At the end of the 3 hour incubation, a multichannel pipette was used to transfer the entire contents from each assay well into the wells of the filter plate. The liquid from the wells was removed by aspiration with the vacuum manifold. Then 200 μL of 1× Working wash solution was added into each well. The wash solution was aspirated using the vacuum manifold after 15-30 seconds. This wash step was repeated one time. The bottom of the plate was blotted on clean paper towels to remove residual liquid. […]
# Phospho-PRAS40(T246) = assay: Luminex multiplex assay, Phospho-PRAS40(T246)
# From the text: (§4) Determination of Phospho-GSK3β(S9), Phospho-PRAS40(T246) and Phospho-4E-BP1(T46) and the Effect of Compound 1 or Rapamycin.
# as §1, §2, §3
# Phospho-GSK3β(S9) = assay: Luminex multiplex assay, Phospho-GSK3β(S9)
# From the text: as §4, §1, §2, §3
# [1] = PC3 cell line, read-out: Luminex p70S6K
# [2] = PC3 cell line, read-out: Luminex PRAS40
# [3] = PC3 cell line, read-out: Luminex GSK-3β
Compound,IC50 (p70S6K; [1]) [nM],IC50 (Phospho-PRAS40(T246); [2]) [nM],IC50 (Phospho-GSK3β(S9); [3]) [nM],further results
Cc1cc(-c2nc[nH]n2)c(F)cc1-c1cnc2c(n1)N(C1CCC(O)CC1)CC(=O)N2 (centres unmarked) [C-133],,,,IC50 (Phospho-p70S6K (T389)): 61 nM; IC50 (GSK-3β): > 500 nM
Cc1cc(-c2nc[nH]n2)ncc1-c1cnc2c(n1)N(CC1CCOCC1)CC(=O)N2 [C-164],,,,IC50 (Phospho-p70S6K (T389)): 1 nM; IC50 (GSK-3β): 275 nM
COCCN1C(=O)CNc2ncc(-c3ccc(-c4cc[nH]n4)cc3)nc21 [C-112],,,,IC50 (Phospho-p70S6K (T389)): 36 nM; IC50 (GSK-3β): > 500 nM
Cc1cc(-c2nc[nH]n2)c(F)cc1-c1cnc2c(n1)N(CC1CCC(O)CC1)CC(=O)N2 (centres unmarked) [C-157],,,,IC50 (Phospho-p70S6K (T389)): 37 nM
O=C1CNc2ncc(-c3ccc(-c4nc[nH]n4)nc3)nc2N1CC1CCC(O)CC1 (centres unmarked) [C-141],,,,IC50 (Phospho-p70S6K (T389)): 42 nM
CO[C@H]1CC[C@@H](CN2C(=O)CNc3ncc(-c4ccc(-c5nc[nH]n5)nc4)nc32)CC1 [C-165],,,,IC50 (GSK-3β): 3 nM
COC1CCC(CN2CC(=O)Nc3ncc(-c4ccc(-c5nc[nH]n5)nc4)nc32)CC1 (centres unmarked) [C-158],,,,IC50 (Phospho-p70S6K (T389)): 36 nM
COC1CCC(CN2CC(=O)Nc3ncc(-c4ccc(-c5ncn[nH]5)nc4)nc32)CC1 (centres unmarked) [C-156],,,,IC50 (Phospho-p70S6K (T389)): 10 nM
Cc1cc(-c2nc[nH]n2)ncc1-c1cnc2c(n1)N(C(C)C)C(=O)CN2 [C-121],,,,IC50 (GSK-3β): 15 nM
CO[C@H]1CC[C@H](N2CC(=O)Nc3ncc(-c4ccc(C(C)(C)O)nc4)nc32)C1 [C-24],843,3660,> 5000,
CC(C)(O)c1ccc(-c2cnc3c(n2)N(CC2CCOCC2)CC(=O)N3)cc1 [C-11],201,754,1170,
COC1CCC(N2CC(=O)Nc3ncc(-c4ccc(C(C)(C)O)nc4)nc32)C1 (centres unmarked) [C-23],207,1440,1770,
COC1CCC(N2C(=O)CNc3ncc(-c4ccc(C(C)(C)O)nc4)nc32)C1 (centres unmarked) [C-81],134,847,> 1500,
"C[C@@H](O)c1ccc(-c2cnc3c(n2)N(CCC2CCOCC2)C(=O)CN3)cn1 [A-8, (R)-7-(6-(1-hydroxyethyl)pyridin-3-yl)-1-(2-(tetrahydro-2H-pyran-4-yl)ethyl)-3,4-dihydropyrazino[2,3-b]pyrazin-2(1H)-one]",,,,"IC50 (p70S6K; Homo sapiens, HCT-116, HCT116 cell line, IGF, read-out: Luminex p70S6K (IGF)): 91 nM; IC50 (p70S6K; Homo sapiens, U-87 MG, U87MG cell line, read-out: Luminex p70S6K): 35.5 nM; IC50 (Phospho-PRAS40(T246); Homo sapiens, HCT-116, HCT116 cell line, IGF, read-out: Luminex PRAS40 (IGF)): 160 nM; IC50 (Phospho-PRAS40(T246); Homo sapiens, U-87 MG, U87MG cell line, read-out: Luminex PRAS40): 255 nM; IC50 (Phospho-GSK3β(S9); Homo sapiens, U-87 MG, U87MG cell line, read-out: Luminex GSK-3β): 402 nM"
CCN1C(=O)CNc2ncc(-c3ccc4cn[nH]c4c3)nc21 [C-97],> 1500,> 1500,> 1500,
COC1CCC(N2C(=O)CNc3ncc(-c4ccc(C(C)(C)O)[n+]([O-])c4)nc32)CC1 (centres unmarked) [C-98],825,> 1500,> 1500,
CO[C@H]1CC[C@H](N2CC(=O)Nc3ncc(-c4ccc(-c5nnc[nH]5)nc4C)nc32)C1 [C-50],48,> 500,> 500,
"CO[C@H]1CC[C@H](N2CC(=O)Nc3ncc(-c4ccc(C(C)(C)O)nc4)nc32)CC1 [A-3, 6-(6-(2-hydroxypropan-2-yl)pyridin-3-yl)-4-((1r,4r)-4-methoxycyclohexyl)-3,4-dihydropyrazino[2,3-b]pyrazin-2(1H)-one]",,,,"IC50 (p70S6K; HCT116 cell line, IGF, read-out: Luminex p70S6K (IGF)): 1820 nM; IC50 (p70S6K; U87MG cell line, read-out: Luminex p70S6K): 435 nM; IC50 (Phospho-PRAS40(T246); HCT116 cell line, IGF, read-out: Luminex PRAS40 (IGF)): 1370 nM; IC50 (Phospho-PRAS40(T246); U87MG cell line, read-out: Luminex PRAS40): 1160 nM; IC50 (Phospho-GSK3β(S9); HCT116 cell line, IGF, read-out: Luminex GSK-3β (IGF)): 1290 nM; IC50 (Phospho-GSK3β(S9); U87MG cell line, read-out: Luminex GSK-3β): 1470 nM"
CC(C)(O)c1ccc(-c2cnc3c(n2)N(CC2CC2)CC(=O)N3)cn1 [C-17],549,2900,> 5000,
COCCN1CC(=O)Nc2ncc(-c3cnc(C(N)=O)cc3C)nc21 [C-86],310,> 1500,939,
COC1CCC(CN2CC(=O)Nc3ncc(-c4ccc(C(C)(C)O)nc4)nc32)C1 (centres unmarked) [C-22],86,1140,2980,
Cc1nc(-c2nnc[nH]2)ccc1-c1cnc2c(n1)N(C)C(=O)CN2 [C-99],11,274,348,
COC1CCC(N2CC(=O)Nc3ncc(-c4cnc(C(N)=O)cc4C)nc32)CC1 (centres unmarked) [C-82],467,> 1500,> 1500,

# More lines, main results first:
IC50 (p70S6K; [1]) [nM],IC50 (Phospho-PRAS40(T246); [2]) [nM],IC50 (Phospho-GSK3β(S9); [3]) [nM],Compound,further results
752,> 1500,> 1500,O=C1CN(CCC2CCOCC2)c2nc(-c3ccc4cn[nH]c4c3)cnc2N1 [C-68],
6,> 50,> 50,O=C1CNc2ncc(-c3ccc(-c4nnc[nH]4)c(F)c3)nc2N1CCC1CCOCC1 [C-20],
468,1990,3840,O=C1CNc2ncc(-c3ccc4cc[nH]c4c3)nc2N1CCC1CCOCC1 [C-49],
> 1500,> 1500,> 1500,O=C1CN(CCC2CCOCC2)c2nc(-c3cnc4nc[nH]c4c3)cnc2N1 [C-74],
252,> 1500,> 1500,COc1ccc(-c2cnc3c(n2)N(CCC2CCOCC2)C(=O)CN3)cn1 [C-105],
1520,> 5000,> 5000,O=C1CN(CCC2CCOCC2)c2nc(-c3ccc4[nH]ccc4c3)cnc2N1 [C-40],
> 1500,> 1500,> 1500,O=c1[nH]c2ncc(-c3ccc(C4(O)COC4)nc3)nc2n1CCC1CCOCC1 [C-76],
1330,> 1500,> 1500,NC(=O)c1cccc(-c2cnc3c(n2)N(CCC2CCOCC2)C(=O)CN3)c1 [C-90],
